The test system of this experiment is bacteria, fungi, and/or yeasts. The experiment is classed as binding.
Setting [1] is: microorganism(s) listed as target(s) of the targeting peptide, wrapped target lists given cell by cell.
Setting [2] is: microorganism(s) the targeting peptide binds, as listed in Table 2.
The mark [3] stands for this setting: microorganism(s) that the targeting peptide binds, as listed in Table 2.

“Also recorded” adds a separate entry of the source. Like-named read-outs stand apart in the source and are kept apart here.

Regarding PF-123 (TTRPQVAEDRQLDDALKETFPASDPISP), the “Target(s)” value under setting [1] is “M. luteus, E. coli”.
Regarding “1T-113 (HGAHQRTGQRLHHHRGRTVSGCRQNPVAGVDPDEHR)”, the “Target(s)” value under setting [2] was “S. mitis”.
Consider “1T-293 (HVEDCFLLSNARTTAIHGRANPARGEPRTRSE)”, for which the “Target(s)” value under setting [1] is reported as “A. naeslundii, F. nucleatum, P. gingivalis,; also recorded: S. epidermidis, S. gordonii,; also recorded: S. mitis, S. mutans, S. oralis,; also recorded: S. salivarious, S. sanguinis”.
For PF-025 (LLIIFRLWLELKWKNKK), the “Target(s)” value under setting [1] is given as “S. epidermidis, M. luteus, P. mirabilis,; also recorded: E. coli, P. aeruginosa,; also recorded: MRSA, E. faecalis, C. jejuni”.
For the substance 1T-86 (HRKNPVLGVGRRHRAHNVA), under setting [2], the “Target(s)” value is “S. mitis, S. oralis, S. salivarious”.
As for PF-125 (YVVGALVILAVAGLIYSMLRKA), the “Target(s)” value under setting [1] is on record as “S. epidermidis, M. luteus, P. mirabilis,; also recorded: E. coli, P. aeruginosa,; also recorded: C. albicans, MRSA, S. pneumoniae,; also recorded: E. faecalis, C. jejuni”.
Take 1T-178 (LLASHPERLSLGVFFVYRVLHLLLENT): under setting [2], the “Target(s)” value was “A. naeslundii, F. nucleatum, P. gingivalis,; also recorded: S. epidermidis, S. gordonii,; also recorded: S. mitis, S. mutans, S. oralis,; also recorded: S. salivarious, S. sanguinis”.
For the substance PF-097 (QPTQGEQGTRPRRPTPMRGLLI), under setting [1], the “Target(s)” value is reported as “C. jeikeium”.
Take 1T-48 (KLQVHHGRATHTLLLQPPLCAPGTIR): the “Target(s)” value under setting [2] is on record as “S. aureus, S. epidermidis, C. jeikeium,; also recorded: C. xerosis, C. striatum,; also recorded: P. aeruginosa”.
Take PF-C139 (LLASHPERLSLGVFFVYRVLHLLLENT): under setting [3], the “Target(s)” value is listed as “A. naeslundii, F. nucleatum, P. gingivalis,; also recorded: S. mutans, T. denticola”.
As for 1T-112 (SDNDGKLILGTSQ), the “Target(s)” value under setting [2] is “S. gordonii”.
Regarding PF-C071 (QVIVKIL), under setting [3], the “Target(s)” value is recorded as “A. naeslundii, F. nucleatum, S. mutans”.
Turning to 1T-23 (PALVDLSNKEAVWAVLDDHS), under setting [2], the “Target(s)” value is “S. mutans, P. aeruginosa”.
Consider 1T-40 (QRVSLWSEVEHEFR), for which the “Target(s)” value under setting [2] is “S. mutans, P. aeruginosa”.
Turning to “1T-228 (IFKLFEEHLLYLLDAFYYSKIFRRLKQGLYRRKEQPYTQDLFRM)”, the “Target(s)” value under setting [2] was “A. naeslundii, F. nucleatum, P. gingivalis,; also recorded: S. epidermidis, S. gordonii,; also recorded: S. mitis, S. mutans, S. oralis,; also recorded: S. salivarious, S. sanguinis”.
On to “1T-137 (PLNFYRAVKENRLPLSEKNINDFTNIKLKVSPKLINLLQESSIFYNFSPKKRNTN)”, for which, under setting [2], the “Target(s)” value is on record as “A. naeslundii, F. nucleatum, P. gingivalis,; also recorded: S. epidermidis, S. gordonii,; also recorded: S. mitis, S. mutans, S. oralis,; also recorded: S. salivarious, S. sanguinis”.
With PF-C084 (FFSVIFLFGLNYLICNSPLFNILR), the “Target(s)” value under setting [3] is “A. naeslundii, F. nucleatum, P. gingivalis,; also recorded: S. mutans”.
In the case of 1T-28 (VSRDEAMEFIDREWTTLQPAGKSHA), under setting [2], the “Target(s)” value was “P. aeruginosa”.
Take 1T-53 (SDILAEMFEKGELQTLVKDAAAKANA): under setting [2], the “Target(s)” value was “P. aeruginosa”.
With 1T-276 (ILTLLILGSIGFFILKIKLKLGRF), under setting [1], the “Target(s)” value was “A. naeslundii, F. nucleatum, P. gingivalis,; also recorded: S. epidermidis, S. gordonii,; also recorded: gordonii, S. mitis, S. mutans, S. oralis,; also recorded: S. sanguinis”.
For 1T-18 (YSKTLHFAD), the “Target(s)” value under setting [2] was “S. aureus, S. epidermidis, C. striatum,; also recorded: P. aeruginosa”.
On to PF-162 (GIRRLHSVENLNREISHRMAGLR), for which the “Target(s)” value under setting [1] is “S. epidermidis, MRSA”.
Consider 1T-79 (FGTPWSITNFWKKNFNDRPDFDSDRRRY), for which the “Target(s)” value under setting [2] was “S. pneumoniae”.
As for PF-023 (MTKNTIISLENEKTQINDSENESSDLRKAK), the “Target(s)” value under setting [1] was “M. luteus, C. jeikeium”.
On the same count and under the same terms, then PF-021 (FSLNFSKQKYVTVN), with “yeast and hyphal forms; also recorded: S. epidermidis, M. luteus, P. mirabilis,; also recorded: E. coli, C. albicans, E. faecalis,; also recorded: C. jeikeium”.
Turning to PF-C088 (DIANNILNSVSERLIIA), under setting [3], the “Target(s)” value is “A. naeslundii, F. nucleatum, P. gingivalis,; also recorded: S. mutans, T. denticola”.
As to PF-159 (TMAFVEKAQLRVPVGDDLPV), under setting [1], the “Target(s)” value is on record as “S. epidermidis”.
As for 1T-172 (FEGLKNLLGDDII), the “Target(s)” value under setting [2] is listed as “A. naeslundii, F. nucleatum, P. gingivalis,; also recorded: S. epidermidis, S. gordonii,; also recorded: S. mitis, S. mutans, S. oralis,; also recorded: S. salivarious, S. sanguinis”.
For the substance “PF-068 (SHLINNFGLSVINPSTPICLNFSPVFNLLTVYGITCN)”, the “Target(s)” value under setting [1] is “S. epidermidis, M. luteus, P. mirabilis,; also recorded: E. coli, P. aeruginosa,; also recorded: C. albicans, MRSA, S. pneumoniae,; also recorded: E. faecalis, C. jeikeium”.
As for “1T-98 (VRSAKAVKALTAAGYTGELVNVSGGMKAWLGQ)”, the “Target(s)” value under setting [2] is listed as “A. naeslundii, F. nucleatum, P. gingivalis,; also recorded: S. epidermidis, S. gordonii,; also recorded: S. mitis, S. mutans, S. oralis,; also recorded: S. salivarious, S. sanguinis”.
As to PF-048 (LYFAFKKYQERVNQAPNIEY), the “Target(s)” value under setting [1] is reported as “S. epidermidis, M. luteus, E. coli,; also recorded: MRSA, C. jeikeium, C. jejuni”.
Regarding PF-139 (ALSKPAIQARTLCRRQDPP), under setting [1], the “Target(s)” value was “S. epidermidis, M. luteus, P. mirabilis,; also recorded: E. coli, P. aeruginosa,; also recorded: C. albicans, S. pneumoniae, E. faecalis,; also recorded: C. jeikeium, C. jejuni”.
With 1T-152 (YVSADESAYNHIVTDDIPLADRRIEAVQQ), under setting [2], the “Target(s)” value is “A. naeslundii, F. nucleatum, P. gingivalis,; also recorded: S. epidermidis, S. gordonii,; also recorded: S. mitis, S. mutans, S. oralis,; also recorded: S. salivarious, S. sanguinis”.
With “PF-S003 (ALALLKQDLLNFEGRGRIITSTYLQFNEGCVP)”, the “Target(s)” value under setting [1] was “yeast and hyphal forms”; the “Target(s)” value under setting [3] is listed as “S. epidermidis, M. luteus, P. mirabilis,; also recorded: E. coli, P. aeruginosa,; also recorded: C. albicans, MRSA, S. pneumoniae,; also recorded: E. faecalis, C. jeikeium,; also recorded: C. jejuni, M. smegmatis”.
For the substance “1T-169 (FARVRRLHQNRILTQPLTNLKYCLRQPIYSD)”, the “Target(s)” value under setting [2] is listed as “A. naeslundii, F. nucleatum, P. gingivalis,; also recorded: S. epidermidis, S. gordonii,; also recorded: S. mitis, S. mutans, S. oralis,; also recorded: S. salivarious, S. sanguinis”.
“TT-308 (GLVIIPNLIALIILFSQVRQQTKDYFSNPKLSSR)”: the “Target(s)” value under setting [1] was “F. nucleatum”.
With “1T-138 (YPNEYCIFLENLSLEELKEIKAINGETLNLEEIINERKNLKD)”, under setting [2], the “Target(s)” value was “A. naeslundii, F. nucleatum, P. gingivalis,; also recorded: S. epidermidis, S. gordonii,; also recorded: S. mitis, S. mutans, S. oralis,; also recorded: S. salivarious, S. sanguinis”.
On to 1T-201 (KRKHENVIVAEEMRVIKN), for which the “Target(s)” value under setting [2] is given as “S. sanguinis”.
Still for that read-out and setting: then 1T-80 (GGNLGPGFGVIIP), with “S. pneumoniae”.
As for PF-S023 (MAEDERRALKRRTNRGRTRTRKRITV), the “Target(s)” value under setting [3] is reported as “S. epidermidis, MRSA”.
As to 1T-151 (SVRAVKPIDEIVAWHFPGDFIVN), the “Target(s)” value under setting [2] is given as “A. naeslundii, F. nucleatum, P. gingivalis,; also recorded: T. denticola, S. gordonii,; also recorded: S. mitis, S. mutans, S. oralis,; also recorded: S. salivarious, S. sanguinis”.
The same measure, in the same setting: then 1T-64 (QTVHHIHMHVLGQRQMHWPPG), with “S. aureus, S. epidermidis, C. jeikeium,; also recorded: C. xerosis, C. striatum,; also recorded: P. aeruginosa”; and 1T-158 (WENKPSPLGSIKKLQGLVYRLIGYRHFWV), with “A. naeslundii, F. nucleatum, P. gingivalis,; also recorded: S. epidermidis, S. gordonii,; also recorded: S. mitis, S. mutans, S. oralis,; also recorded: S. salivarious, S. sanguinis”.
On to 1T-123 (LVRRNAVAGRSDGLAGAEQLDLVRLQGVL), for which, under setting [2], the “Target(s)” value is given as “S. gordonii”.
Take 1T-73 (GWWEELLHETILSKFKITKALELPIQL): the “Target(s)” value under setting [2] was “S. pneumoniae”.
With PF-S026 (TELKYNGEEYLLLTQRDILAVIEK), the “Target(s)” value under setting [3] is “S. epidermidis, MRSA, C. jeikeium”.
As to 1T-184 (ALLVLNLLLMQFFFGKNM), the “Target(s)” value under setting [2] is reported as “A. naeslundii, F. nucleatum, P. gingivalis,; also recorded: T. denticola, S. gordonii,; also recorded: S. mitis, S. mutans, S. oralis,; also recorded: S. salivarious, S. sanguinis”.
Turning to 1T-121 (FAKETGFGIGGAQEGWWIIADIYGPNPF), the “Target(s)” value under setting [2] is given as “S. gordonii, S. mitis, S. mutans,; also recorded: S. oralis, S. salivarious, S. sanguinis”.
On the same count and under the same terms, then “1T-163 (MENILIYIPMVLSPFGSGILLFLGKDRRYML)”, with “A. naeslundii, F. nucleatum, P. gingivalis,; also recorded: S. epidermidis, S. gordonii,; also recorded: S. mitis, S. mutans, S. oralis,; also recorded: S. salivarious, S. sanguinis”.
Turning to PF-153 (GILARADCSQIA), the “Target(s)” value under setting [1] was “M. luteus, P. mirabilis, E. coli, and MRSA”.
In the case of PF-130 (LQRSDEESMPRRHEKYS), the “Target(s)” value under setting [1] is recorded as “E. faecalis, C. jeikeium, C. jejuni”.
Regarding 1T-179 (TCYPLIQRKTDRAYEA), the “Target(s)” value under setting [2] is “A. naeslundii, F. nucleatum, P. gingivalis,; also recorded: T. denticola, S. gordonii,; also recorded: S. mitis, S. mutans, S. oralis,; also recorded: S. salivarious, S. sanguinis”.
In the case of 1T-125 (DAITGGNPPLSDTDGLRP), under setting [2], the “Target(s)” value is listed as “S. epidermidis, S. gordonii, S. mutans,; also recorded: S. oralis”.
For the substance “1T-150 (YINRRLKKAFSDADIKEAPAEFYEELRRVQYV)”, under setting [2], the “Target(s)” value was “A. naeslundii, F. nucleatum, P. gingivalis,; also recorded: T. denticola, S. gordonii,; also recorded: S. mitis, S. mutans, S. oralis,; also recorded: S. salivarious, S. sanguinis”.
Consider 1T-96 (VAGACAQPFGGQ), for which, under setting [2], the “Target(s)” value is given as “S. gordonii, S. mitis, S. mutans,; also recorded: S. oralis, S. sanguinis”.
Regarding “Rv2561 (QHQCPGMRPAPADAPEVPHAARADQKRPSLRL)”, the “Target(s)” value under setting [1] was “C. albicans”.
Consider 1T-193 (LMIFDKHANLKYKYGNRSFGVEAIM), for which the “Target(s)” value under setting [2] was “S. sanguinis”.
PF-054 (VSISRFIGGGHVFNGNNKRNL): the “Target(s)” value under setting [1] is “S. epidermidis, E. coli”.
Take 1T-99 (MKAWLGQ): the “Target(s)” value under setting [2] was “S. gordonii, S. mitis, S. mutans,; also recorded: S. oralis, S. sanguinis”.
Turning to “1T-190 (IQIIVNAFVEKDKTGAVIEVLYASNNHEKVKAKYEELVAIS)”, under setting [2], the “Target(s)” value is on record as “A. naeslundii, F. nucleatum, P. gingivalis,; also recorded: S. epidermidis, S. gordonii,; also recorded: S. mitis, S. mutans, S. oralis,; also recorded: S. salivarious, S. sanguinis”.
In the case of 1T-274 (ETTTEINAIKLHRIKQRSPQGTRRVN), the “Target(s)” value under setting [1] was “F. nucleatum, S. mutans, S. oralis,; also recorded: S. sanguinis”.

Values taken from patent publication US20120003661A1, “METHODS AND DEVICES FOR THE SELECTIVE DETECTION OF MICROORGANISMS” (C3 JIAN, INC., priority 2010, published 2012).
